Drawing on ChEMBL document CHEMBL3286253, “Design, synthesis, and structure-activity relationship studies of novel thioether pleuromutilin derivatives as potent antibacterial agents” (J Med Chem, 2014), this text covers MIC for ten compounds.

Values after ≈ are worked out from the molar mass of the structure shown.

What all share (format): functional
Assay [1] deals with Staphylococcus aureus. The assay can be described thus: Antibacterial activity against Staphylococcus aureus […] after 16 hrs by agar dilution method.
Assay [2] has as its system Staphylococcus aureus. Kind of assay: Antibacterial activity against methicillin-sensitive Staphylococcus aureus after 16 hrs by agar dilution method.
Assay [3] deals with Staphylococcus aureus. Kind of assay: Antibacterial activity against methicillin-resistant Staphylococcus aureus after 16 hrs by agar dilution method.
The test system of assay [4] is Staphylococcus epidermidis. Kind of assay: Antibacterial activity against methicillin-sensitive Staphylococcus epidermidis after 16 hrs by agar dilution method.
For the next assay, the system named is Streptococcus pneumoniae. The assay can be described thus: Antibacterial activity against penicillin-resistant Streptococcus pneumoniae after 16 hrs by agar dilution method.
Assay [5] concerns Staphylococcus epidermidis. The assay can be described thus: Antibacterial activity against methicillin-resistant Staphylococcus epidermidis after 16 hrs by agar dilution method.

Turning to `C=C[C@]1(C)C[C@@H](OC(=O)CSc2ccncc2N)[C@]2(C)[C@H](C)CC[C@]3(CCC(=O)[C@H]32)[C@@H](C)[C@@H]1O`, the MIC in the assay on Staphylococcus aureus [1] came to 0.125 µg/mL (≈ 0.257 µM); in the assay with Staphylococcus aureus [2], 0.063 µg/mL (≈ 0.129 µM); in the assay on Staphylococcus aureus [3], 0.063 µg/mL (≈ 0.129 µM); in assay [4], 0.063 µg/mL (≈ 0.129 µM); against Streptococcus pneumoniae, 0.125 µg/mL (≈ 0.257 µM); in assay [5], 0.063 µg/mL (≈ 0.129 µM).
In the case of `C=C[C@]1(C)C[C@@H](OC(=O)CSc2cncc(/C=N/O)c2)[C@]2(C)[C@H](C)CC[C@]3(CCC(=O)[C@H]32)[C@@H](C)[C@@H]1O`, the MIC (against Staphylococcus aureus [1]; in the assay with Staphylococcus aureus [2]; with Staphylococcus aureus [3]; in assay [4]; with Streptococcus pneumoniae; in assay [5]) was 0.063 µg/mL (≈ 0.122 µM) each time.
Take `C=C[C@]1(C)C[C@@H](OC(=O)CSc2cncc(NC(=O)[C@@H]3CCCN3)c2)[C@]2(C)[C@H](C)CC[C@]3(CCC(=O)[C@H]32)[C@@H](C)[C@@H]1O`: the MIC in the assay with Staphylococcus aureus [1] was determined as 0.125 µg/mL (≈ 0.214 µM); in the assay on Staphylococcus aureus [2] it was 0.031 µg/mL (≈ 0.0531 µM); against Staphylococcus aureus [3], 0.125 µg/mL (≈ 0.214 µM); in assay [4], 0.063 µg/mL (≈ 0.108 µM); in the assay with Streptococcus pneumoniae, 0.031 µg/mL (≈ 0.0531 µM); in assay [5], 0.125 µg/mL (≈ 0.214 µM).
Regarding `C=C[C@]1(C)C[C@@H](OC(=O)CSc2ncccc2[N+](=O)[O-])[C@]2(C)[C@H](C)CC[C@]3(CCC(=O)[C@H]32)[C@@H](C)[C@@H]1O`, the MIC against Staphylococcus aureus [1] is 0.125 µg/mL (≈ 0.242 µM); against Staphylococcus aureus [2] it was 0.125 µg/mL (≈ 0.242 µM); with Staphylococcus aureus [3], 0.063 µg/mL (≈ 0.122 µM); in assay [4] it was 0.125 µg/mL (≈ 0.242 µM); against Streptococcus pneumoniae it was 0.125 µg/mL (≈ 0.242 µM); in assay [5], 0.063 µg/mL (≈ 0.122 µM).
In the case of `C=C[C@]1(C)C[C@@H](OC(=O)CSc2cnccn2)[C@]2(C)[C@H](C)CC[C@]3(CCC(=O)[C@H]32)[C@@H](C)[C@@H]1O`, the MIC was found to be 0.25 µg/mL (≈ 0.529 µM) in the assay on Staphylococcus aureus [1]; 0.125 µg/mL (≈ 0.264 µM) with Staphylococcus aureus [2]; 0.125 µg/mL (≈ 0.264 µM) against Staphylococcus aureus [3]; 0.125 µg/mL (≈ 0.264 µM) in assay [4]; 0.125 µg/mL (≈ 0.264 µM) in the assay with Streptococcus pneumoniae; 0.125 µg/mL (≈ 0.264 µM) in assay [5].
Consider `C=C[C@]1(C)C[C@@H](OC(=O)CSc2cncc(NC(=O)[C@@H](N)[C@@H](C)CC)c2)[C@]2(C)[C@H](C)CC[C@]3(CCC(=O)[C@H]32)[C@@H](C)[C@@H]1O`, for which the MIC (in the assay on Staphylococcus aureus [1]; in the assay on Staphylococcus aureus [2]; in the assay on Staphylococcus aureus [3]; in assay [4]; against Streptococcus pneumoniae; in assay [5]) was 0.25 µg/mL (≈ 0.417 µM) throughout.
For `C=C[C@]1(C)C[C@@H](OC(=O)CSc2cccnc2)[C@]2(C)[C@H](C)CC[C@]3(CCC(=O)[C@H]32)[C@@H](C)[C@@H]1O`, the MIC is 0.25 µg/mL (≈ 0.53 µM) against Staphylococcus aureus [1]; 0.125 µg/mL (≈ 0.265 µM) against Staphylococcus aureus [2]; 0.125 µg/mL (≈ 0.265 µM) in the assay with Staphylococcus aureus [3]; 0.125 µg/mL (≈ 0.265 µM) in assay [4]; 0.125 µg/mL (≈ 0.265 µM) against Streptococcus pneumoniae; 0.25 µg/mL (≈ 0.53 µM) in assay [5].
Take `C=C[C@]1(C)C[C@@H](OC(=O)CSc2ccc(N)nc2)[C@]2(C)[C@H](C)CC[C@]3(CCC(=O)[C@H]32)[C@@H](C)[C@@H]1O`: the MIC against Staphylococcus aureus [1] is 0.125 µg/mL (≈ 0.257 µM); with Staphylococcus aureus [2], 0.125 µg/mL (≈ 0.257 µM); in the assay on Staphylococcus aureus [3], 0.063 µg/mL (≈ 0.129 µM); in assay [4] it was 0.5 µg/mL (≈ 1.03 µM); with Streptococcus pneumoniae, 0.063 µg/mL (≈ 0.129 µM); in assay [5], 0.063 µg/mL (≈ 0.129 µM).
`C=C[C@]1(C)C[C@@H](OC(=O)CSc2cncc(NC(=O)CN3CC[C@H](O)C3)c2)[C@]2(C)[C@H](C)CC[C@]3(CCC(=O)[C@H]32)[C@@H](C)[C@@H]1O`: the MIC (against Staphylococcus aureus [1]; against Staphylococcus aureus [2]; against Staphylococcus aureus [3]; in assay [4]; in the assay with Streptococcus pneumoniae; in assay [5]) was 0.125 µg/mL (≈ 0.204 µM) throughout.
Turning to `C=C[C@]1(C)C[C@@H](OC(=O)CS[C@@H]2C[C@H]3CC[C@@H](C2)N3C)[C@]2(C)[C@H](C)CC[C@]3(CCC(=O)[C@H]32)[C@@H](C)[C@@H]1O` [RETAPAMULIN], the MIC in the assay on Staphylococcus aureus [1] was determined as 0.125 µg/mL (≈ 0.241 µM); in the assay with Staphylococcus aureus [2], 0.063 µg/mL (≈ 0.122 µM); in the assay with Staphylococcus aureus [3], 0.063 µg/mL (≈ 0.122 µM); in assay [4], 0.063 µg/mL (≈ 0.122 µM); against Streptococcus pneumoniae it was 0.063 µg/mL (≈ 0.122 µM); in assay [5] it was 0.063 µg/mL (≈ 0.122 µM).
